Reference: patent publication US4794114A, “Inhibition of interleukin-1 production by monocytes and/or macrophages” (SmithKline Beckman Corporation, priority 1987, dated 1988)
Where two headings read alike, the source gives them in different places.

What was measured:
[1] = test system: IL-1 production by human monocytes; assay: in vitro IL-1 production by LPS-stimulated human peripheral blood monocytes (EL-4 readout); assay type: cell-based; details: for inhibition at 1 µM: 10^-6 M; for inhibition at 0.1 µM: 10^-7 M
Experimental: The effects of antiinflammatory/antiarthritic drugs of different classes, including Compound 1 on the in vitro production of IL-1 by human monocytes was examined.
(§1) Bacterial lipopolysaccharide (LPS) was used to induce IL-1 production by human peripheral blood monocytes. IL-1 activity was measured by its ability to stimulate a Interleukin 2 (IL-2) producing cell line (EL-4) to secrete IL-2, in concert with A23187 ionophore, according to the method of Simon et al., J. Immunol. Methods, 84, 85, (1985). Human peripheral blood monocytes were isolated and purified from either fresh blood preparations from volunteer donors, or from blood Bank buffy coats, according to the procedure of Colotta et al., J. Immunol., 132, 936 (1984). 1×10^6 of such monocytes are plated in 24-well plates at a concentration of 2 million/ml per well. The cells were allowed to adhere for 2 hours, after which time non-adherent cells were removed by gentle washing. Test compounds were then added to the cells for 1 hour (hr) before the addition of lipopolysaccharide (10 ng/ml unless otherwise noted), and the cultures were incubated at 37° C. for an additional 24 hours. At the end of the incubation period, culture supernatants were removed and clarified of cells and all debris. Culture supernatants were immediately assayed for IL-1 biological activity as well as prostaglandin and/or leukotriene concentrations by radioimmunoassay.
^(a) All compounds, except chloroquine, were dissolved in absolute
ethanol at 10^-2 M, which was subsequently diluted further in tissue
assay system at doses tested. Furthermore, test samples were dialyzed
prior to testing in the IL1 assay.
In order to elucidate the mechanism by which Compound 1 mediates its anti-inflammatory activity, the ability of this compound and two closely related analog metabolites, (i.e., the analogs of Compound 1 wherein X is S(0)n and n is 1 or 2) to inhibit human IL-1 production in vitro was evaluated according to the method of Example 1. Briefly, 1×10^6 human peripheral blood monocytes were plated in 24-well plates and allowed to adhere for 1 hr at 37° C. The above compounds were added to a final concentration of 10^-5 M to 10^-8 M. The monocytes were stimulated to produce IL-1 with 1 ng/ml LPS after a 1 hr pretreatment of the cells with the respective compounds.
The inhibitory effect of additional compounds of Formula (I) on the in vitro production of IL-1 production of IL-1 by human monocytes was determined according to the procedure of Examples 1 and 2.

PGE2 = assay: in vitro prostaglandin (PGE2) synthesis by LPS-stimulated human monocytes, RIA; assay type: cell-based
Experimental: as §1
^(c) PGE2 was assayed using an RIA kit.

monocytes = assay: in vitro; assay type: cell-based, human
Experimental: as §1
^(b) At doses at or above 10^-5 M, this compound exerted some

EL-4/CTLL assay = assay: direct effect on IL-1 standard in EL-4/CTLL readout assay; assay type: cell-based
Experimental: as §1
Inhibition of IL-1 production by Compound 1 is not due to a carryover effect of the drug on the cells sed in the IL-1 readout assay. […]

A375 melanoma cells = assay: tumoricidal activity of LPS-treated human monocytes in the kill of A375 melanoma cells; assay type: cell-based; details: 10^-5 to 10^-8 M
alpha interferon = alpha interferon (other inducible proteins) production; assay type: cell-based
[2] = test system: human peripheral blood lymphocytes; assay: lectin-stimulated mitogenesis of human peripheral blood lymphocytes; assay type: cell-based
IL-2 = IL-2 production or response; assay type: cell-based
[3] = test system: adjuvant-induced arthritis in the rat; assay: adjuvant-induced arthritis in the rat: right leg paw edema; assay type: in vivo; details: mg/kg: Compound 1 60, indomethacin 2.0, prednisolone 10, methotrexate 0.3, D-penicillamine 50
Experimental: (§2) Adjuvant-induced arthritis in the rat is a model of systemic inflammation with characteristics similar to rheumatoid arthritis in man. […] This model was employed to assess the effect of Compound 1 in vivo on this elevated IL-1 production. Briefly, rats were injected on day 0 with Freund's complete adjuvant in the right hind leg. Drugs were prepared as a suspension in tragacanth and administered daily per os either prophylactically (days 1 to 16) or therapeutically in a short-term modality (days 14 to 16). In all cases, final administration of drug occurred at 3 hours prior to sacrifice. Spleens were removed from these rats and the adherent cells were assessed for their ability to produce IL-1 in vitro in response to stimulation by LPS.
(§3) PROPHYLACTIC TREATMENT: Drugs were administered daily p.o. as a suspensio
(§4) in tragacanth from day 1 to day 16. Final dose given 3 hrs before
(§5) TREATMENT: Drugs were administered daily p.o. as above from
(§6) day 14 to day 16. Final dose given 3 hrs before sacrifice.
(§7) ***P < 0.01 Indomethacin 2.0 mg/kg
(§8) **P < 0.05 Compound 1 60 mg/kg
(§9) *P < 0.10 Prednisolone 10 mg/kg
(§10) D-Penicillamine 50 mg/kg

splenic adherent cells = assay: adjuvant-induced arthritis in the rat: % splenic adherent cells; assay type: in vivo; details: mg/kg: Compound 1 60, indomethacin 2.0, prednisolone 10, methotrexate 0.3, D-penicillamine 50
Experimental: as §2, §3, §4, §5, §6, §7, §8, §9, §10

[4] = test system: IL-1 production by splenic adherent cells; assay: adjuvant-induced arthritis in the rat: IL-1 production by LPS-stimulated splenic adherent cells; assay type: in vivo; details: for IL-1 Production (splenic adherent cells), % normal control: mg/kg: Compound 1 60, indomethacin 2.0, prednisolone 10, methotrexate 0.3, D-penicillamine 50
Experimental: as §2, §3, §4, §5, §6, §7, §8, §9, §10

[5] = test system: endotoxin shock in C57B1/6 mice; assay type: in vivo, mouse; details: mouse, in vivo
Experimental: Mice are very resistant to the lethal effects of bacterial lipopolysaccharides (LPS). D-Galactosamine (D-GALN) induces a high degree of sensitization to the lethal effects of LPS in mice and other experimental animals. [See, Galanos et al., Proc. Natl. Acad Sci. USA., 76, 5939 (1979)]. In mice, depending on the strain and age, the sensitivity to endotoxin can be increased many thousand-fold.
A number of preliminary experiments were carried out to establish this model of lethal endotoxin shock.

[6] = Homo sapiens, Monocyte, wide range of LPS, read-out: inhibition of IL-1 production
[7] = Homo sapiens, Monocyte, read-out: % Inhibition IL-1
[8] = prophylactic, daily p.o. days 1-16
[9] = therapeutic, daily p.o. days 14-16

Question: Which “dose dependence of IL-1 production inhibition” value [1] does the source give for `Fc1ccc(-c2nc3n(c2-c2ccncc2)CCS3)cc1` [Compound 1] here?
Answer: dose dependent

Question: What about the “inhibition of IL-1 production” value [1] of the same molecule?
Answer: inhibits IL-1 production

Question: What about the “relative potency against the two analogs” value ([1]; 1 ng/ml LPS) of the same molecule?
Answer: slightly more potent than the two analogs tested

Question: And the IC50 ([1]; Homo sapiens, Monocyte, 1 ng/ml LPS, 1 hr pretreatment)?
Answer: 250 nM

Question: What about the inhibition at 10 µM ([1]; Homo sapiens, Monocyte, 10^-5 M, read-out: % Inhibition IL-1) of the same molecule?
Answer: 99%

Question: And the inhibition at 1 µM [1, 6]?
Answer: ~80%

Question: What about the inhibition at 1 µM ([1]; Homo sapiens, Monocyte, Table 3, read-out: % Inhibition @ 10^-6 M) of the same molecule?
Answer: 70%

Question: And the inhibition at 1 µM [1, 7]?
Answer: 96%

Question: What about the inhibition at 0.1 µM [1, 6] of the same molecule?
Answer: ~40%

Question: And the inhibition at 0.1 µM [1, 7]?
Answer: 88%

Question: And the “inhibition of IL-1 production” value ([1]; submicromolar range (10^-7 M))?
Answer: greater than 80%

Question: What about the “inhibition of IL-1 production induced by a variety of activators” value ([1]; variety of activators) of the same molecule?
Answer: inhibits IL-1 production induced by a variety of activators

Question: What about the inhibition at 10 µM (PGE2; Homo sapiens, Monocyte, 10^-5 M, read-out: % Inhibition PGE2) of the same molecule?
Answer: 99%

Question: What about the inhibition at 1 µM (PGE2; Homo sapiens, Monocyte, 10^-6 M, read-out: % Inhibition PGE2) of the same molecule?
Answer: 94%

Question: And the inhibition at 0.1 µM (PGE2; Homo sapiens, Monocyte, 10^-7 M, read-out: % Inhibition PGE2)?
Answer: 79%

Question: And the “inhibition of prostaglandin synthesis” value (PGE2; submicromolar range (10^-7 M))?
Answer: greater than 80%

Question: What about the “nonspecific toxic effect on other functions of activated monocytes” value (monocytes) of the same molecule?
Answer: does not exert a nonspecific toxic effect on other functions of activated monocytes

Question: What about the “effect on the IL-1 assay system” value (EL-4/CTLL assay; 10^-5 or higher) of the same molecule?
Answer: had an effect on the assay system

Question: What about the “direct effect on the IL-1 assay” value (EL-4/CTLL assay; lower doses / doses tested) of the same molecule?
Answer: no direct effect on the IL-1 assay

Question: And the “effect on monocyte tumoricidal activity” value (A375 melanoma cells)?
Answer: did not effect that biological activity

Question: What about the “effect on other inducible proteins such as alpha interferon” value (alpha interferon) of the same molecule?
Answer: not effected

Question: What about the “inhibition of lectin-stimulated mitogenesis” value [2] of the same molecule?
Answer: does not inhibit lectin-stimulated mitogenesis

Question: And the “inhibition of IL-2 production” value (IL-2; IL-2 production)?
Answer: does not inhibit either IL-2 production or response

Question: And the “inhibition of IL-2 response” value (IL-2; IL-2 response)?
Answer: does not inhibit either IL-2 production or response

Question: And the “Right leg paw edema, % normal control” value [3, 8]?
Answer: 134 ± 9 % normal control

Question: And the “Right leg paw edema, % normal control” value [3, 9]?
Answer: 159 ± 7 % normal control

Question: And the “% Adherent Cells (splenic), % normal control” value (splenic adherent cells; [8])?
Answer: 98 ± 29 % normal control

Question: And the “% Adherent Cells (splenic), % normal control” value (splenic adherent cells; [9])?
Answer: 216 ± 137 % normal control

Question: What about the “decrease in IL-1 production” value ([4]; prophylactic administration) of the same molecule?
Answer: more dramatic decrease in IL-1 production than indomethacin which resulted in nearly complete normalization of this parameter

Question: And the “IL-1 Production (splenic adherent cells), % normal control” value [4, 8]?
Answer: 139 ± 28 % normal control

Question: And the “IL-1 Production (splenic adherent cells), % normal control” value [4, 9]?
Answer: 392 ± 129 % normal control

Question: And the “effect in adjuvant arthritic rats” value ([4]; therapeutic, short-term treatment)?
Answer: no effect

Question: What about the “protection from lethal effects of LPS/GALN” value [5] of the same molecule?
Answer: protected the animals from the lethal effects of LPS/GALN

Question: What about the “immunosuppressive effect” value (immunosuppressive effect) of the same molecule?
Answer: not immunosuppressive
